Results reported in patent publication US20160264593A1 (priority 2013, published 2016).
Values joined by “and” are separate entries in the source; they are usually repeats but may differ in a detail not shown here. Equal entries are not always repeated. “Also recorded” adds a separate entry of the source. Where two headings read alike, the source gives them in different places.

What was measured:
PP2A [1] = test: PP2A activity in mouse livers after IP dosing (PP2A immunoprecipitation phosphatase assay, malachite green); format: in vivo, Balb/c mice
In short: (§1)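 Female Balb/c mice (6-8 weeks) were dosed IP with compound in 4% sodium bicarbonate; brain and liver were harvested 3 h and 6 h post-dose. PP2A was immunoprecipitated from 240 μg lysate with anti-PP2A, using normal IgG as control. Phosphatase activity on a threonine phosphopeptide was read by malachite green absorbance against a phosphate standard curve.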

lung cancer (A549) cells = test: WST cell viability assay, A549; format: cell-based; conditions: Homo sapiens, A549, read-out: IC50 A549
PP2A [2] = test: PP2A activity in mouse brains after IP dosing (PP2A immunoprecipitation phosphatase assay, malachite green); format: in vivo, Balb/c mice; conditions: for Average Conc. (group of 3 mice) / Average Relative Activity (group, vehicle = 100) / Conc. (phosphate, single reading, per mouse) / Mean Conc. (per mouse) / Mean Conc. less IgG blank (per mouse) / Relative Conc. (per mouse, to vehicle) / Relative PP2A Activity (per mouse, vehicle = 100): brain; for activity of PP2A in brains (statement): high dose IP
In short: as §1

[3] = tested on: glioblastoma (U-87) cells; test: WST cell viability assay, U-87 MG; format: cell-based; conditions: Homo sapiens, U-87 MG
[4] = tested on: breast cancer (2LMP) cells; test: WST cell viability assay, 2LMP
Description: IC50 values were obtained for cytotoxicity against breast cancer (2LMP), glioblastoma (U-87) and lung cancer (A549) cells (See Table 5 and FIGS. 3-5).

[5] = IP, dose and time not specified
[6] = low dose IP (mpk: 100 0.75, 113 1.1, 151 0.8, 153 0.85, 157 1.0), 3 h, liver
[7] = low dose IP (mpk: 100 0.75, 113 1.1, 151 0.8, 153 0.85, 157 1.0), 6 h, liver
[8] = high dose IP (mpk: 100 1.5, 113 2.2, 151 1.6, 153 1.7, 157 2.0), 3 h
[9] = high dose IP (mpk: 100 1.5, 113 2.2, 151 1.6, 153 1.7, 157 2.0), 6 h
[10] = low dose IP (mpk: 100 0.75, 113 1.1, 151 0.8, 153 0.85, 157 1.0), 3 h
[11] = low dose IP (mpk: 100 0.75, 113 1.1, 151 0.8, 153 0.85, 157 1.0), 6 h

SMILES: CCCOC(=O)C1C2CCC(O2)C1C(=O)N1CCN(C)CC1 (stereo not shown) [Compound 153, 3-(4-Methylpiperazine-1-carbonyl)-7-oxa-bicyclo[2,2,1]heptane-2-carboxylic acid propyl ester]
- PP2A activity in the liver of mice (statement) (PP2A [1]; [5]): inhibited PP2A activity
- activity of PP2A in livers as compared with vehicle (statement) (PP2A [1]; high dose IP, 6 h post treatment): significantly inhibited
- Average Conc. (group of 3 mice) (PP2A [1]; [6]): 387.63
- Average Relative Activity (group, vehicle = 100) (PP2A [1]; [6]): 92.3
- Conc. (phosphate, single reading, per mouse) (PP2A [1]; [6]): 445.88 and 461.99 and 441.96 and 438.48 and 396.24 and 414.09
- Mean Conc. (per mouse) (PP2A [1]; [6]): 453.94 and 440.22 and 405.17
- Mean Conc. less IgG blank (per mouse) (PP2A [1]; [6]): 408.46 and 394.74 and 359.69
- Relative Conc. (per mouse, to vehicle) (PP2A [1]; [6]): 0.97 and 0.94 and 0.86
- Relative PP2A Activity (per mouse, vehicle = 100) (PP2A [1]; [6]): 97.26 and 93.99 and 85.65
- Average Conc. (group of 3 mice) (PP2A [1]; [7]): 364.7
- Average Relative Activity (group, vehicle = 100) (PP2A [1]; [7]): 82.05
- IC50 (lung cancer (A549) cells): > 100 µM
- PP2A activity in the brain of mice (statement) (PP2A [2]; [5]): inhibited PP2A activity
- Average Conc. (group of 3 mice) (PP2A [2]; [8]): 1620.00
- Average Relative Activity (group, vehicle = 100) (PP2A [2]; [8]): 65.73
- Conc. (phosphate, single reading, per mouse) (PP2A [2]; [8]): 2278.33 and 2174.47 and 1309.82 and 1252.91 and 1475.88 and 1456.77
- Mean Conc. (per mouse) (PP2A [2]; [8]): 2226.40 and 1281.36 and 1466.33
- Mean Conc. less IgG blank (per mouse) (PP2A [2]; [8]): 2188.37 and 1243.34 and 1428.30
- Relative Conc. (per mouse, to vehicle) (PP2A [2]; [8]): 1.01 and 0.57 and 0.66
- Relative PP2A Activity (per mouse, vehicle = 100) (PP2A [2]; [8]): 88.79 and 50.45 and 57.95
- Average Conc. (group of 3 mice) (PP2A [2]; [9]): 1696.22
- Average Relative Activity (group, vehicle = 100) (PP2A [2]; [9]): 61.07
- Conc. (phosphate, single reading, per mouse) (PP2A [2]; [9]): 1822.84 and 1778.73 and 1685.64 and 1802.51 and 1690.72 and 1625.07
- Mean Conc. (per mouse) (PP2A [2]; [9]): 1800.78 and 1744.07 and 1657.89
- Mean Conc. less IgG blank (per mouse) (PP2A [2]; [9]): 1762.76 and 1706.05 and 1619.87
- Relative Conc. (per mouse, to vehicle) (PP2A [2]; [9]): 0.72 and 0.70 and 0.66
- Relative PP2A Activity (per mouse, vehicle = 100) (PP2A [2]; [9]): 63.47 and 61.43 and 58.32
- activity of PP2A in brains (statement) (PP2A [2]; 3 h): more effectively than compound 100
- activity of PP2A in brains (statement) (PP2A [2]; 6 h): significantly inhibited; also recorded: more effectively than compound 100
- PP2A activity in brains as compared with vehicle (PP2A [2]; high doses IP, 6 h post treatment): 61%
- Average Conc. (group of 3 mice) (PP2A [2]; [10]): 2159.78
- Average Relative Activity (group, vehicle = 100) (PP2A [2]; [10]): 87.63
- Conc. (phosphate, single reading, per mouse) (PP2A [2]; [10]): 2670.21 and 2571.02 and 1916.94 and 1817.15 and 2140.93 and 2070.60
- Mean Conc. (per mouse) (PP2A [2]; [10]): 2620.61 and 1867.04 and 2105.77
- Mean Conc. less IgG blank (per mouse) (PP2A [2]; [10]): 2582.58 and 1829.02 and 2067.74
- Relative Conc. (per mouse, to vehicle) (PP2A [2]; [10]): 1.19 and 0.84 and 0.95
- Relative PP2A Activity (per mouse, vehicle = 100) (PP2A [2]; [10]): 104.78 and 74.21 and 83.90
- Average Conc. (group of 3 mice) (PP2A [2]; [11]): 2104.97
- Average Relative Activity (group, vehicle = 100) (PP2A [2]; [11]): 75.79
- Conc. (phosphate, single reading, per mouse) (PP2A [2]; [11]): 1969.99 and 2070.60 and 2070.20 and 2078.94 and 2387.89 and 2280.36
- Mean Conc. (per mouse) (PP2A [2]; [11]): 2020.30 and 2074.57 and 2334.12
- Mean Conc. less IgG blank (per mouse) (PP2A [2]; [11]): 1982.27 and 2036.54 and 2296.10
- Relative Conc. (per mouse, to vehicle) (PP2A [2]; [11]): 0.81 and 0.83 and 0.94
- Relative PP2A Activity (per mouse, vehicle = 100) (PP2A [2]; [11]): 71.37 and 73.33 and 82.67
- IC50 ([3]; read-out: IC50 U-87 MG, WST-20131017 (first value of the cell)): > 100 µM
- IC50 ([3]; read-out: IC50 U-87 MG, WST-20131024 (second value of the cell)): > 100 µM
- cytotoxicity against breast cancer cells (statement) ([4]; WST, 2LMP): cytotoxic
- IC50 ([4]; read-out: IC50 2LMP, WST-20131015 (first value of the cell)): 69.1 µM
- IC50 ([4]; read-out: IC50 2LMP, WST-20131025 (second value of the cell)): 62 µM
